Test results taken from US10640457B2, “Histone acetyltransferase activators and uses thereof” (The Trustees of Columbia University in the City of New York, priority 2009, dated 2020).
Values joined by “and” are separate entries in the source; they are usually repeats but may differ in a detail not shown here. Identical values can stand only once. “Also recorded” adds a separate entry of the source.

Experiments:
APP/PS1 mice = test: Contextual and cued fear conditioning in APP/PS1 mice (TSA); assay type: in vivo
Procedure: Following experiments on acute effect of TSA in synaptic dysfunction, we determined if TSA is beneficial against impairment of contextual FC in APP/PS1 mice[A17]. 4 month-old mice were divided into 4 groups: APP/PS1 with TSA, APP/PS1 with vehicle, WT with TSA and WT with vehicle. TSA and vehicle control solution were administered i.p. at a concentration of 2 μg/g body weight. We found a similar shock threshold among the various groups of mice. Then, mice were trained to associate neutral stimuli with an aversive one. They were placed in a novel context (FC box), exposed to a white noise cue paired with a mild foot shock, and injected with TSA 2 hrs before training Fear learning was assessed 24 hrs later by measuring freezing behavior—the absence of all movement except for that necessitated by breathing—in response to representation of the context. We found no difference in the freezing behavior among the 4 groups of mice during the training phase of the FC. 24 hrs later, freezing behavior was decreased in vehicle-treated APP/PS1 mice compared to vehicle-treated WT littermates in analyzing contextual learning (FIG. 18).
HDAC inhibition rescues the defect in associative memory in APP/PS1 mice. Similar to humans affected by AD [B51] […] (herein incorporated by reference in its entirety). In rodents, associative learning can be assessed by contextual fear conditioning. This behavioral task, which is based on the association of a neutral stimulus with an aversive one, is dependent on hippocampal function [B52] (herein incorporated by reference in its entirety). Thus, following experiments on acute effect of TSA in synaptic dysfunction, we determined if TSA is beneficial against impairment of contextual fear conditioning in 3-4 month old APP/PS1 mice [B14] (herein incorporated by reference in its entirety). Animals were divided into 4 groups: APP/PS1 with TSA, APP/PS1 with vehicle, WT with TSA and WT with vehicle. TSA and vehicle control solution were administered i.p. at a concentration of 2 mg/Kg body weight. We found a similar shock threshold among the various groups of mice. Then, mice were trained to associate neutral stimuli with an aversive one. They were placed in a novel context (fear conditioning box), exposed to a white noise cue paired with a mild foot shock, and injected with TSA 2 hrs before training. Fear learning was assessed 24 hrs later by measuring freezing behavior—the absence of all movement except for that necessitated by breathing—in response to representation of the context. We found no difference in the freezing behavior among the 4 groups of mice during the training phase of the fear conditioning (F3,47=0.02997, p=0.9929, n=12-13/group; FIG. 18). Twenty-four hours later, we found a decreased freezing behavior in vehicle-treated APP/PS1 mice compared to vehicle-treated WT littermates in the analysis of the contextual learning (F3,47=[…], p=0.0280, n=12-13/group; FIG. 18).
Freezing in vehicle-treated APP/PS1 mice was about 46% that of vehicle-treated WT mice [vehicle-treated APP/PS1 mice: 14.88±2.97% vs. vehicle-treated WT littermates: 31.68±5.32%; n=13 (11 females plus 2 males) and n=13 (11 females plus 2 males), respectively; t=2.76, p=0.0109; FIG. 18]. […] We next tested cued fear conditioning, a hippocampus-independent task [B46] […] (herein incorporated by reference in its entirety).

Sirtuin 1 = target: T1, Sirtuin 1 (Homo sapiens, UniProt Q96EB6); test: Sirtuin 1 fluorogenic activity assay; settings: for % Activity: Repeat1/Repeat2, listed as OA2
T1 sequence (Q96EB6 1-747): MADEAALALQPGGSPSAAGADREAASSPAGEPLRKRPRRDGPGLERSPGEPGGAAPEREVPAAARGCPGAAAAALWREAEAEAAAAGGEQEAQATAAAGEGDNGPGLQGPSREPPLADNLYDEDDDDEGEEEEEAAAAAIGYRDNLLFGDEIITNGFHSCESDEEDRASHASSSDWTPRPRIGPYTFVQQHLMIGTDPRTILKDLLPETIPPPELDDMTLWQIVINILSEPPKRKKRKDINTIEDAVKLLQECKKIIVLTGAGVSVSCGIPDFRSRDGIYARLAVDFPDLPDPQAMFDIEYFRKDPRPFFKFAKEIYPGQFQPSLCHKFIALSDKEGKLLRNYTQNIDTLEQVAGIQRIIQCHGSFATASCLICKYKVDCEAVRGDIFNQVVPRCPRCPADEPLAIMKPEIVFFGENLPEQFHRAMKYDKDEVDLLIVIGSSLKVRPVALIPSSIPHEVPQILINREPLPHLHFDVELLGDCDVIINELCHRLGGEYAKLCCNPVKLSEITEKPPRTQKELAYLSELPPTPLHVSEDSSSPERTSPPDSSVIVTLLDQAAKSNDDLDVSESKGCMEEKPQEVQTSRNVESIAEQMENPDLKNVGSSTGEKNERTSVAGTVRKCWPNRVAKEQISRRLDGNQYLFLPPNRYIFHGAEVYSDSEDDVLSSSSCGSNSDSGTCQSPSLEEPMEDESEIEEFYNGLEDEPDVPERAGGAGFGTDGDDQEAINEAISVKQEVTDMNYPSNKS

HDAC3/NCOR2 = HDAC3/NCOR2 (Homo sapiens, UniProt O15379); test: HDAC3/NCOR2 fluorogenic activity assay
Sequence of HDAC3/NCOR2 (O15379 whole entry): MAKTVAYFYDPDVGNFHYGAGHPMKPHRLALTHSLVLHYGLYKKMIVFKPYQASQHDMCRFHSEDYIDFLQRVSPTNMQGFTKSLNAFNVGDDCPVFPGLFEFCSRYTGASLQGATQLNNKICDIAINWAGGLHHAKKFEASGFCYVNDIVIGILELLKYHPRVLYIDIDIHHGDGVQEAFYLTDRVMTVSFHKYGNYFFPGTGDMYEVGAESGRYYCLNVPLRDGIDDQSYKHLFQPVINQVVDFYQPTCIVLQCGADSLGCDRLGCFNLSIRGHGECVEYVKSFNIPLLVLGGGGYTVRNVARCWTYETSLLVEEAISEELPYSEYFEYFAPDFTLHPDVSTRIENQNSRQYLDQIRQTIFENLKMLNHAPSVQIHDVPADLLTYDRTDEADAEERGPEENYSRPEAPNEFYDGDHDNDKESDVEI
Sequence of HDAC3/NCOR2 (Q9Y618 395-489 partner limits assumed): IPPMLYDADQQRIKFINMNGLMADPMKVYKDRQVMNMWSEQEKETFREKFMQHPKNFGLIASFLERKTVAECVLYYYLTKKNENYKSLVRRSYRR

## CC(/C=C/C(=O)NO)=C\[C@@H](C)C(=O)c1ccc(N(C)C)cc1 [TSA, trichostatin A]
APP/PS1 mice; TSA i.p. 2 hrs before training
  contextual fear memory deficit in APP/PS1 mice: improved memory; also recorded: ameliorates
APP/PS1 mice; TSA-treated APP/PS1 mice, 2 mg/Kg i.p.
  freezing time relative to vehicle-treated APP/PS1 mice: about 236.27%
APP/PS1 mice; TSA-treated APP/PS1 mice, 2 mg/Kg i.p. 2 hrs before training
  freezing, contextual fear conditioning 24 hrs after training: 35.15±6.99%
APP/PS1 mice; TSA-treated WT mice, 2 mg/Kg i.p.
  freezing, contextual fear conditioning 24 hrs after training: 36.95±6.43%
APP/PS1 mice; pre-CS and CS
  cued fear conditioning, freezing among the 4 groups: did not find a difference

## CCOc1cccc(OCCN(C)C)c1C(=O)Nc1ccc(Cl)c(C(F)(F)F)c1 [YF2]
Sirtuin 1
  IC50: > 200 µM
Sirtuin 1; OA2 Log[nM] 0.5
  % Activity: 94.26% and 99.92%
Sirtuin 1; OA2 Log[nM] 1.0
  % Activity: 87.25% and 99.42%
Sirtuin 1; OA2 Log[nM] 1.5
  % Activity: 100.27% and 87.48%
Sirtuin 1; OA2 Log[nM] 2.0
  % Activity: 97.98% and 92.56%
Sirtuin 1; OA2 Log[nM] 2.5
  % Activity: 101.56% and 100.81%
Sirtuin 1; OA2 Log[nM] 3.0
  % Activity: 108.86% and 94.87%
Sirtuin 1; OA2 Log[nM] 3.5
  % Activity: 96.93% and 100.23%
Sirtuin 1; OA2 Log[nM] 4.0
  % Activity: 96.69% and 89.85%
Sirtuin 1; OA2 Log[nM] 4.5
  % Activity: 98.83% and 93.79%
Sirtuin 1; OA2 Log[nM] 5.3
  % Activity: 99.02% and 100.98%
HDAC3/NCOR2
  IC50: > 200 µM
